Where no end group is shown, it is not given here.

The values that follow come from patent US11773137B2, “Arid5a peptide inhibitors” (KING FAISAL UNIVERSITY, priority 2019, dated 2023).

The test system of the data set is polarized Th17 cells. Nature of the data set: IL-17 production by naïve CD4+ T cells cultured under Th17-polarizing conditions. Type of data set: cell-based. To be noted: PIA at 15, 30 and 45 μM. On the procedure: Naïve CD4^+ T cells were isolated from the spleen using MACS® CD4^+CD62L^+ isolation kit (Miltenyi Biotec). The isolated CD4^+CD62L^+ T cells were cultured in the presence of anti-CD3/CD28 dynabeads (Invitrogen), IL-6 (30 ng/mL; R&D Systems), transforming growth factor TGF-β1 (4 ng/mL; R&D Systems), anti-interferon IFN-γ and anti-IL-4 (10 μg/mL; Biolegend) for 72 h.
The intensities of Arid5a immunoblot bands and IL-17 concentrations are presented as mean±SD from at least three independent experiments produced similar results. The statistical significance between mean values was tested by one-way ANOVA. *p<0.05 was considered significant.
Arid5a plays an important role in the production of IL-17, a cytokine that plays pivotal roles in chronic inflammation and autoimmune diseases such as MS and rheumatoid arthritis, and cancer. Therefore, the effects of PIA (SEQ ID NO: 2) on IL-17 production by naïve CD4^+ cells cultured under Th17-polarizing conditions were examined. The CD4^+CD62L^+ T cells were cultured in the presence of anti-CD3/CD28 dynabeads, IL-6, TGF-β1, anti-IFN-γ and anti-IL-4.

Consider ACTVGGYE [PIA, ACTVGGYE], for which the cell viability entry is “no significant effects on cell viability”.
